The subject of data set [1] is HT29 cells. In words: MTT cell proliferation assay. Type of data set: cell-based. The following applies: Homo sapiens, HT-29, 72 hrs, tested at 20, 30, 50 and 100 μM, read-out: IC50 dose (dose required to reduce cell proliferation by 50% compared to medium). As to the method:
HT29 is a COX-2 positive human colorectal adenocarcinoma cell line and is in particular a model for adenocarcinoma, especially COX-2 positive adenocarcinoma. […] The cells were grown in a humidified atmosphere containing 5% CO2. Cell proliferation was measured using the VybrantMTT assay kit according to the manufacturer's guidelines. HT29 cells (10,000 cells) cells were plated in 100 μl of complete McCoy's 5A media in 96-well tissue culture dishes. […] In the case of celecoxib dissolved in DMSO, the celecoxib was dissolved overnight in DMSO before treatment. Two control groups were employed, one which involved no treatment (referred to as media) and the other which involved treatment with DMSO alone. […] The absorbance (A) was determined in a BioRad 680 microplate reader (BioRad, USA) at 550 nm.
A general note: Formazan colour is commonly taken as a measure of viable cells.

The nature of data set [2]: Solubilisation measurements of celecoxib in vehicles (oils, surfactants, co-solvents). Format: physicochemical. The procedure:
Solubilisation studies were performed using a wide range of vehicles consisting of oils, surfactants and co-solvents. The vehicles used were Kolliphor® HS 15, Transcutol® P, Kolliphor® EL, Miglyol® 810N, Tween® 20 and Capryol® 90.
Celecoxib was added to measured quantities of the vehicles (excipients) in glass vials. These mixtures were stirred at room temperature on a magnetic stirrer; as an exception, the solubilisation measurements were performed at elevated temperatures in respect of vehicles which were solid at room temperature.

The conditions of data set [3]: cited from earlier work.
For data set [4] the following is noted: at 20° C.; cited from earlier work.
Data set [5] has as its system HT29 cells. In words: Annexin V-PE / 7-AAD cell viability and apoptosis assay by flow cytometry. Format: cell-based, human. As to the method: HT29 is a COX-2 positive human colorectal adenocarcinoma cell line and is in particular a model for adenocarcinoma, especially COX-2 positive adenocarcinoma. The HT29 cell line was grown in McCoy's 5A modified medium supplemented with 1.5 mM L-glutamine, 10% FBS (fetal bovine serum) and 1% penicillin/streptomycin. The cells were grown in a humidified atmosphere containing 5% CO2.
Two control groups were employed, one which involved no treatment (referred to as media) and the other which involved treatment with DMSO alone. Cell viability and the onset of apoptosis was monitored using an Annexin-PE Apoptosis Detection Kit which contains recombinant Annexin V-fluorochrome phycoerythrin (PE) conjugate and the vital dye 7-amino-actinomycin (7-AAD) followed by flow cytometry on a FACSCalibur system using CellQest software (BD Biosciences, USA) . Data for at least 10,000 cells were collected for each analysis made and two-dimensional plots of 7-AAD versus PE were generated.
On the technique in general: A flow cytometer gives signals particle by particle.

A short description of data set [6]: Precipitation of drug during minibead manufacture (surfactant phase in contact with gelatin phase). The note with it: inhibitor added to celecoxib minibead formulation. Format: physicochemical. The procedure:
Minibeads containing celecoxib were prepared via a manual drop in oil method. The minibeads were manufactured by combining the surfactant phase (drug dissolved in vehicles) with a gelatin phase (mixture of gelatin, water, sorbitol and SDS) and mixing at approximately 60° C. Droplets of the mixture were then allowed to fall into a bath of cooling/hardening oil (Miglyol® 810N) at approximately 10° C. As the mixture droplets fall in air, coacervation occurs to form a coacervate suspension in which droplets of the surfactant phase are surrounded by a layer of gelatine (multiple coacervates exist within a single minibead). The dropping of the minibead into a cooling/hardening bath allows the minibeads to harden before being recovered for drying. […] A range of oils was investigated (olive oil, mineral oil and other medium chain triglycerides) for use as the cooling/hardening oil in the production of minibeads. […] The minibeads were then air dried for 24 hr (over this time the water in the formulation evaporated). In some of the formulations other components were added to the gelatin phase to prevent precipitation of drug during manufacturing and also to help maintain the minibead structure.
Similar formulations were produced in which the drug loading was increased to 9-10% w/w, however precipitation was evident for these formulations on contact of the surfactant phase with the gelatin phase. […]

The Log P is a log measure of how a compound divides between an organic and an aqueous phase. Broadly, the aqueous solubility is how much of the substance goes into solution per volume. Take `Cc1ccc(-c2cc(C(F)(F)F)nn2-c2ccc(S(N)(=O)=O)cc2)cc1` [Celecoxib, celecoxib]: in data set [1], the IC50 was more than 100 µM. In addition, the “solubility of celecoxib in Capryol 90” value in data set [2] (vehicle Capryol 90, range between transparent and cloudy) lay in the range of 58 to 64 mg/g. Besides, in data set [2] (vehicle Transcutol P), the “solubility of celecoxib in 2-(2-ethoxyethoxy)ethanol (Transcutol P)” value was in the range of 345 to 390 mg/g. Moreover, the “maximum solubility of celecoxib in ethanol” value in data set [2] (vehicle ethanol) is 100 to 125 mg/g. The log partition coefficient (Log P) in data set [3] is recorded as 3.5. Also, in data set [4], the aqueous solubility was 3 to 7 µg/mL. Further, in data set [5] (50 μM, 72 h), the “% of cells that died by necrosis” value was 13.96±2.48%; the “combined % of cells that died via apoptosis (late and early apoptosis)” value is recorded as 17.02±1.63%. Moreover, the viability at 50 µM in data set [5] (Homo sapiens, HT-29, 72 h, n=6, read-out: % viable cells) stood at 69 ± 2.71%.

For the molecule `CC(=O)Oc1c(C)c(C)c2c(c1C)CCC(C)(CCC[C@H](C)CCC[C@H](C)CCCC(C)C)O2` (stereo partly shown) [Vitamin E Acetate, vitamin E acetate], the “Effect (potential precipitation inhibitor)” value in data set [6] is recorded as “Effective precipitation inhibitor but negative”.
